Measurements: paper PMC5218480 (PLoS ONE, 2017)

Test system: MV-4-11 cells
Test: Gene expression microarray analysis (Affymetrix PrimeView) and GSEA
Assay type: cell-based, human
Parameters: RFU PODN (11730768_x_at) / Fold change /veh PODN (11730768_x_at) / RFU LINC00158 (11744669_a_at) / Fold change /veh LINC00158 (11744669_a_at) / RFU DUSP10 (11751237_a_at) / Fold change /veh DUSP10 (11751237_a_at) / RFU ID3 (11757404_x_at) / Fold change /veh ID3 (11757404_x_at) / RFU PLEKHG5 (11737974_s_at) / Fold change /veh PLEKHG5 (11737974_s_at) / RFU LRRC4B (11730491_at) / Fold change /veh LRRC4B (11730491_at) / RFU GIMAP4 (11747438_a_at) / Fold change /veh GIMAP4 (11747438_a_at) / RFU KRT8 (11758183_x_at) / Fold change /veh KRT8 (11758183_x_at) / RFU CNN1 (11734310_a_at) / Fold change /veh CNN1 (11734310_a_at) / RFU VPS37D (11726825_at) / Fold change /veh VPS37D (11726825_at) / RFU C10orf10 (11716522_x_at) / Fold change /veh C10orf10 (11716522_x_at) / RFU KIR2DL2 /// KIR2DL4 /// KIR2DL5A /// KIR2DL5B /// KIR2DS1 /// KIR2DS2 /// KIR2DS3 /// KIR2DS4 /// KIR3DL3 /// KIR3DL3 /// KIR3DS1 (11738374_at) / Fold change /veh KIR2DL2 /// KIR2DL4 /// KIR2DL5A /// KIR2DL5B /// KIR2DS1 /// KIR2DS2 /// KIR2DS3 /// KIR2DS4 /// KIR3DL3 /// KIR3DL3 /// KIR3DS1 (11738374_at) / RFU C1QL1 (11718748_at) / Fold change /veh C1QL1 (11718748_at) / RFU TMPRSS4 (11747572_a_at) / Fold change /veh TMPRSS4 (11747572_a_at) / RFU HAMP (11756126_x_at) / Fold change /veh HAMP (11756126_x_at) / RFU RNFT2 (11725882_a_at) / Fold change /veh RNFT2 (11725882_a_at) / RFU NR4A2 (11747474_a_at) / Fold change /veh NR4A2 (11747474_a_at) / RFU ABCC12 (11746883_a_at) / Fold change /veh ABCC12 (11746883_a_at) / RFU TMEM136 (11760407_x_at) / Fold change /veh TMEM136 (11760407_x_at) / RFU CLDN22 /// WWC2 (11732394_at) / Fold change /veh CLDN22 /// WWC2 (11732394_at) / RFU HLA-DPB1 (11760878_x_at) / Fold change /veh HLA-DPB1 (11760878_x_at) / RFU SPINT1 (11716480_a_at) / Fold change /veh SPINT1 (11716480_a_at) / RFU GAP43 (11754022_s_at) / Fold change /veh GAP43 (11754022_s_at) / RFU A4GNT (11735810_at) / Fold change /veh A4GNT (11735810_at) / RFU PRB3 (11715151_x_at) / Fold change /veh PRB3 (11715151_x_at) / RFU TUBB4B (11761932_at) / Fold change /veh TUBB4B (11761932_at) / RFU CAPN14 (11732068_a_at) / Fold change /veh CAPN14 (11732068_a_at) / RFU TMCC2 (11721928_a_at) / Fold change /veh TMCC2 (11721928_a_at) / RFU IRGQ (11745062_a_at) / Fold change /veh IRGQ (11745062_a_at) / RFU FAM174B (11720279_a_at) / Fold change /veh FAM174B (11720279_a_at) / RFU TMPRSS4 (11748680_a_at) / Fold change /veh TMPRSS4 (11748680_a_at) / RFU FAM212B (11763350_a_at) / Fold change /veh FAM212B (11763350_a_at) / RFU PLEKHG5 (11743358_a_at) / Fold change /veh PLEKHG5 (11743358_a_at) / RFU ZSCAN30 (11745921_a_at) / Fold change /veh ZSCAN30 (11745921_a_at) / RFU CMKLR1 (11741424_a_at) / Fold change /veh CMKLR1 (11741424_a_at) / RFU LOC101060620 /// MAPK8IP1 (11723275_at) / Fold change /veh LOC101060620 /// MAPK8IP1 (11723275_at) / RFU SPTSSB (11747773_x_at) / Fold change /veh SPTSSB (11747773_x_at) / RFU PRSS12 (11739890_at) / Fold change /veh PRSS12 (11739890_at) / RFU BIN1 (11741810_x_at) / Fold change /veh BIN1 (11741810_x_at) / RFU WNT11 (11732464_a_at) / Fold change /veh WNT11 (11732464_a_at) / RFU C10orf10 (11716521_a_at) / Fold change /veh C10orf10 (11716521_a_at) / RFU C5orf56 (11738089_at) / Fold change /veh C5orf56 (11738089_at) / RFU CYB561 (11721691_x_at) / Fold change /veh CYB561 (11721691_x_at) / RFU ANKRD19P (11752326_a_at) / Fold change /veh ANKRD19P (11752326_a_at) / RFU OR2T12 /// OR2T33 /// OR2T8 (11738714_s_at) / Fold change /veh OR2T12 /// OR2T33 /// OR2T8 (11738714_s_at) / RFU VCAN (11748164_a_at) / Fold change /veh VCAN (11748164_a_at) / RFU JSRP1 (11732532_at) / Fold change /veh JSRP1 (11732532_at) / RFU KRTAP10-11 (11738290_x_at) / Fold change /veh KRTAP10-11 (11738290_x_at) / RFU MYO3A (11730013_a_at) / Fold change /veh MYO3A (11730013_a_at) / RFU EBF3 (11725865_a_at) / Fold change /veh EBF3 (11725865_a_at) / RFU CAMK2N1 (11719241_x_at) / Fold change /veh CAMK2N1 (11719241_x_at) / RFU C5orf56 (11738088_a_at) / Fold change /veh C5orf56 (11738088_a_at) / RFU OLFML3 (11715873_a_at) / Fold change /veh OLFML3 (11715873_a_at) / RFU LOC100653217 /// NTM (11731650_a_at) / Fold change /veh LOC100653217 /// NTM (11731650_a_at) / RFU MAPK11 (11762145_a_at) / Fold change /veh MAPK11 (11762145_a_at) / RFU FIZ1 (11724087_x_at) / Fold change /veh FIZ1 (11724087_x_at) / RFU OASL (11726364_x_at) / Fold change /veh OASL (11726364_x_at) / RFU SOX15 (11748057_x_at) / Fold change /veh SOX15 (11748057_x_at) / RFU CD79A (11719716_a_at) / Fold change /veh CD79A (11719716_a_at) / RFU HIST1H1D (11736915_at) / Fold change /veh HIST1H1D (11736915_at) / RFU CASKIN2 (11723855_a_at) / Fold change /veh CASKIN2 (11723855_a_at) / RFU LOC730098 (11760151_x_at) / Fold change /veh LOC730098 (11760151_x_at) / RFU OR4N2 (11742367_at) / Fold change /veh OR4N2 (11742367_at) / RFU PRRT2 (11749266_a_at) / Fold change /veh PRRT2 (11749266_a_at) / RFU SNX32 (11753110_a_at) / Fold change /veh SNX32 (11753110_a_at) / RFU CDHR5 (11726645_a_at) / Fold change /veh CDHR5 (11726645_a_at) / RFU RCAN1 (11760418_a_at) / Fold change /veh RCAN1 (11760418_a_at) / RFU FAM167A (11723789_a_at) / Fold change /veh FAM167A (11723789_a_at) / RFU FAM26E (11764081_at) / Fold change /veh FAM26E (11764081_at) / RFU ISYNA1 (11749810_s_at) / Fold change /veh ISYNA1 (11749810_s_at) / RFU ACY1 (11761880_at) / Fold change /veh ACY1 (11761880_at) / RFU 11764098_at / Fold change /veh 11764098_at / RFU SAMD14 (11745864_x_at) / Fold change /veh SAMD14 (11745864_x_at) / RFU NPB (11741838_a_at) / Fold change /veh NPB (11741838_a_at) / RFU TMPRSS6 (11731388_a_at) / Fold change /veh TMPRSS6 (11731388_a_at) / RFU KRTAP10-2 (11738614_at) / Fold change /veh KRTAP10-2 (11738614_at) / RFU ARHGAP8 /// PRR5-ARHGAP8 (11727945_x_at) / Fold change /veh ARHGAP8 /// PRR5-ARHGAP8 (11727945_x_at) / RFU KRTAP5-7 /// NADSYN1 (11734609_at) / Fold change /veh KRTAP5-7 /// NADSYN1 (11734609_at) / RFU RASL12 (11751679_a_at) / Fold change /veh RASL12 (11751679_a_at) / RFU CDKN2B (11736163_a_at) / Fold change /veh CDKN2B (11736163_a_at) / RFU PRF1 (11729649_at) / Fold change /veh PRF1 (11729649_at) / RFU, ZNF638 /// ZNF638-IT1 / Fold change vs veh, ZNF638 /// ZNF638-IT1 / RFU, PANK3 / Fold change vs veh, PANK3 / RFU, SH3YL1 / Fold change vs veh, SH3YL1 / RFU, ZEB2 / Fold change vs veh, ZEB2 / RFU, NRIP1 / Fold change vs veh, NRIP1 / RFU, PTTG1IP / Fold change vs veh, PTTG1IP / RFU, CAPN2 / Fold change vs veh, CAPN2 / RFU, MED14 / Fold change vs veh, MED14 / RFU, SNORA58 / Fold change vs veh, SNORA58 / RFU, C1orf63 / Fold change vs veh, C1orf63 / RFU, LRRFIP1 / Fold change vs veh, LRRFIP1 / RFU, NDUFAF7 / Fold change vs veh, NDUFAF7 / RFU, SLC12A2 / Fold change vs veh, SLC12A2 / RFU, IBTK / Fold change vs veh, IBTK / RFU, ESF1 / Fold change vs veh, ESF1 / Fold change vs veh, TMEM50B / RFU, TAOK1 / Fold change vs veh, TAOK1 / RFU, ACBD3 / Fold change vs veh, ACBD3 / RFU, TMA16 / Fold change vs veh, TMA16 / RFU, RWDD3 / Fold change vs veh, RWDD3 / RFU, BCAT1 / Fold change vs veh, BCAT1 / RFU, EDEM3 / Fold change vs veh, EDEM3 / RFU, TMEM33 / Fold change vs veh, TMEM33 / RFU, WDR75 / Fold change vs veh, WDR75 / RFU, AHCTF1 / Fold change vs veh, AHCTF1 / RFU, TFRC / Fold change vs veh, TFRC / RFU, ZDHHC17 / Fold change vs veh, ZDHHC17 / RFU, NOM1 / Fold change vs veh, NOM1 / RFU, ARL8B / Fold change vs veh, ARL8B / RFU, ZBTB11 / Fold change vs veh, ZBTB11 / RFU, TAMM41 / Fold change vs veh, TAMM41 / RFU, KIAA1704 /// LOC100996395 / Fold change vs veh, KIAA1704 /// LOC100996395 / RFU, ING1 / Fold change vs veh, ING1 / RFU, TRMT61B / Fold change vs veh, TRMT61B / RFU, FUBP3 / Fold change vs veh, FUBP3 / RFU, TP53 / Fold change vs veh, TP53 / RFU, TNKS2 / Fold change vs veh, TNKS2 / RFU, ZFP14 / Fold change vs veh, ZFP14 / RFU, ACTR2 / Fold change vs veh, ACTR2 / RFU, PPP3R1 / Fold change vs veh, PPP3R1 / RFU, PIK3R1 / Fold change vs veh, PIK3R1 / RFU, HNRNPA1 / Fold change vs veh, HNRNPA1 / RFU, RNF170 / Fold change vs veh, RNF170 / RFU, ZNF28 / Fold change vs veh, ZNF28 / RFU, RNGTT / Fold change vs veh, RNGTT / RFU, OGT / Fold change vs veh, OGT / RFU, BRD1 / Fold change vs veh, BRD1 / RFU, MARS / Fold change vs veh, MARS / RFU, ZNF655 / Fold change vs veh, ZNF655 / RFU, FAHD1 / Fold change vs veh, FAHD1 / RFU, BDP1 / Fold change vs veh, BDP1 / RFU, LRRCC1 / Fold change vs veh, LRRCC1 / RFU, ARID1A / Fold change vs veh, ARID1A / RFU, ZNF146 / Fold change vs veh, ZNF146 / RFU, ZNF330 / Fold change vs veh, ZNF330 / RFU, GPN3 / Fold change vs veh, GPN3 / RFU, C9orf123 / Fold change vs veh, C9orf123 / RFU, N4BP2L2 / Fold change vs veh, N4BP2L2 / RFU, ARFIP1 / Fold change vs veh, ARFIP1 / RFU, FAM179B / Fold change vs veh, FAM179B / RFU, BCL10 / Fold change vs veh, BCL10 / RFU, UHRF1BP1L / Fold change vs veh, UHRF1BP1L / RFU, BET1 / Fold change vs veh, BET1 / RFU, CNOT2 / Fold change vs veh, CNOT2 / RFU, ZNF268 / Fold change vs veh, ZNF268 / Fold change vs veh, ZNF507 / RFU, DGCR2 / Fold change vs veh, DGCR2 / RFU, WDSUB1 / Fold change vs veh, WDSUB1 / Fold change vs veh, HSP90B1 /// MIR3652 / RFU, ADSS / Fold change vs veh, ADSS / RFU, GK / Fold change vs veh, GK / RFU, ZNF148 / Fold change vs veh, ZNF148 / RFU, TAF9 / Fold change vs veh, TAF9 / RFU, SLC1A5 / Fold change vs veh, SLC1A5 / RFU, SLMO2 / Fold change vs veh, SLMO2 / RFU, ABCC4 / Fold change vs veh, ABCC4 / RFU, LOC101060439 /// RAP1B / Fold change vs veh, LOC101060439 /// RAP1B / RFU, RFX7 / Fold change vs veh, RFX7 / RFU, GTPBP10 / Fold change vs veh, GTPBP10 / RFU, CNEP1R1 / Fold change vs veh, CNEP1R1 / RFU, BIVM-ERCC5 /// ERCC5 / Fold change vs veh, BIVM-ERCC5 /// ERCC5 / RFU, ILF3 / Fold change vs veh, ILF3 / RFU 11762660_at / Fold change /veh 11762660_at / RFU VCAN (11757783_s_at) / Fold change /veh VCAN (11757783_s_at) / RFU DDX43 (11728927_at) / Fold change /veh DDX43 (11728927_at) / RFU KRT8 (11758188_x_at) / Fold change /veh KRT8 (11758188_x_at) / RFU NKD1 (11759106_at) / Fold change /veh NKD1 (11759106_at) / RFU SRD5A1 (11742802_a_at) / Fold change /veh SRD5A1 (11742802_a_at) / RFU TPSAB1 /// TPSB2 (11721975_s_at) / Fold change /veh TPSAB1 /// TPSB2 (11721975_s_at) / RFU GSTM3 (11746129_a_at) / Fold change /veh GSTM3 (11746129_a_at) / RFU IL23R (11737362_x_at) / Fold change /veh IL23R (11737362_x_at) / RFU TMEM51 (11727254_a_at) / Fold change /veh TMEM51 (11727254_a_at) / RFU PIWIL2 (11732686_x_at) / Fold change /veh PIWIL2 (11732686_x_at) / RFU ORM1 (11744905_x_at) / Fold change /veh ORM1 (11744905_x_at) / RFU CCDC152 (11743942_at) / Fold change /veh CCDC152 (11743942_at) / RFU ECM1 (11717891_a_at) / Fold change /veh ECM1 (11717891_a_at) / RFU IL23R (11748794_a_at) / Fold change /veh IL23R (11748794_a_at) / RFU TNFAIP8L3 (11732012_x_at) / Fold change /veh TNFAIP8L3 (11732012_x_at) / RFU MBOAT4 (11741988_at) / Fold change /veh MBOAT4 (11741988_at) / RFU 11764193_at / Fold change /veh 11764193_at / RFU TMEM53 (11763286_at) / Fold change /veh TMEM53 (11763286_at) / RFU MAGEB2 (11727129_at) / Fold change /veh MAGEB2 (11727129_at) / RFU TMEM200A (11744735_a_at) / Fold change /veh TMEM200A (11744735_a_at) / RFU CCDC152 (11751479_a_at) / Fold change /veh CCDC152 (11751479_a_at) / RFU FAM211A (11726209_a_at) / Fold change /veh FAM211A (11726209_a_at) / RFU RGS16 (11746705_a_at) / Fold change /veh RGS16 (11746705_a_at) / RFU VCAN (11755009_s_at) / Fold change /veh VCAN (11755009_s_at) / RFU RHOB (11743442_s_at) / Fold change /veh RHOB (11743442_s_at) / RFU RGS16 (11720943_a_at) / Fold change /veh RGS16 (11720943_a_at) / RFU RGS16 (11720944_at) / Fold change /veh RGS16 (11720944_at) / RFU, VPS4B / Fold change vs veh, VPS4B / RFU, CREB1 / Fold change vs veh, CREB1 / RFU, DNAJC13 / Fold change vs veh, DNAJC13 / RFU, GNAQ / Fold change vs veh, GNAQ / RFU, CDK5R1 / Fold change vs veh, CDK5R1 / RFU, ZRANB3 / Fold change vs veh, ZRANB3 / RFU, CUL4A / Fold change vs veh, CUL4A / RFU, CCNY / Fold change vs veh, CCNY / RFU, UFL1 / Fold change vs veh, UFL1 / RFU, COG3 / Fold change vs veh, COG3 / RFU, DIAPH2 / Fold change vs veh, DIAPH2 / RFU, SKA2 / Fold change vs veh, SKA2 / RFU, AFF3 / Fold change vs veh, AFF3 / RFU, LMF1 / Fold change vs veh, LMF1 / RFU, IPO11 / Fold change vs veh, IPO11 / RFU, DFFB / Fold change vs veh, DFFB / RFU, FOXP1 / Fold change vs veh, FOXP1 / RFU, CARD8 / Fold change vs veh, CARD8 / RFU, STRN3 / Fold change vs veh, STRN3 / RFU, ADK / Fold change vs veh, ADK / RFU, RASSF2 / Fold change vs veh, RASSF2 / RFU, WIPF1 / Fold change vs veh, WIPF1 / RFU, LARP1B / Fold change vs veh, LARP1B / RFU, RASA1 / Fold change vs veh, RASA1 / RFU, RB1 / Fold change vs veh, RB1 / RFU, PPFIA1 / Fold change vs veh, PPFIA1 / RFU, MAT2A / Fold change vs veh, MAT2A / RFU, CCT5 / Fold change vs veh, CCT5 / RFU, WDR92 / Fold change vs veh, WDR92 / RFU, CUX1 / Fold change vs veh, CUX1 / RFU, TTC7A / Fold change vs veh, TTC7A / RFU, TMEM135 / Fold change vs veh, TMEM135 / RFU, DEPTOR / Fold change vs veh, DEPTOR / RFU, CPM / Fold change vs veh, CPM / RFU, DNAJB6 / Fold change vs veh, DNAJB6 / RFU, CACNA2D3 / Fold change vs veh, CACNA2D3 / RFU, DTX4 / Fold change vs veh, DTX4 / RFU, TFCP2 / Fold change vs veh, TFCP2 / RFU, GMCL1 /// GMCL1P1 / Fold change vs veh, GMCL1 /// GMCL1P1 / RFU, AEBP2 / Fold change vs veh, AEBP2 / RFU, SNHG1 /// SNORD22 /// SNORD25 /// SNORD26 /// SNORD27 /// SNORD28 /// SNORD29 /// SNORD31 / Fold change vs veh, SNHG1 /// SNORD22 /// SNORD25 /// SNORD26 /// SNORD27 /// SNORD28 /// SNORD29 /// SNORD31 / Fold change (Aza/veh), C12orf56 (ProbeSet 11735607_a_at) / Fold change (ACY-1035/veh), C12orf56 (ProbeSet 11735607_a_at) / Fold change (Aza/veh), FGFR1OP (ProbeSet 11751329_s_at) / Fold change (ACY-1035/veh), FGFR1OP (ProbeSet 11751329_s_at) / Fold change (Aza/veh), VPS36 (ProbeSet 11739960_a_at) / Fold change (ACY-1035/veh), VPS36 (ProbeSet 11739960_a_at) / RFU SYPL1 (11715823_x_at) / Fold change /veh SYPL1 (11715823_x_at) / RFU IGFBP7 (11715501_s_at) / Fold change /veh IGFBP7 (11715501_s_at) / RFU REEP3 (11722064_at) / Fold change /veh REEP3 (11722064_at) / RFU IGLL1 (11728026_x_at) / Fold change /veh IGLL1 (11728026_x_at): dose or concentration left out as unconfirmed
Conditions: MV-4-11 cells, 48 hours

SMILES: Nc1ncn([C@@H]2O[C@H](CO)[C@@H](O)[C@H]2O)c(=O)n1 [azacitidine]
- RFU NR4A2 (11747474_a_at): 22.61 RFU
